{"source": "EPA's ToxValDB 9.5 (doi:10.2903/j.efsa.2008.124r)", "key": {"Bibionidae": {"test_system": "Bibionidae", "details": "chronic/long-term; duration: 28 days; development"}, "Lepomis macrochirus": {"test_system": "Lepomis macrochirus", "details": "acute; duration: 96 hours; mortality"}, "Folsomia candida": {"test_system": "Folsomia candida", "details": "chronic/long-term; duration: 28 days"}, "Oncorhynchus mykiss": {"test_system": "Oncorhynchus mykiss", "details": "chronic/long-term; duration: 21 days; mortality"}, "Apis mellifera": {"test_system": "Apis mellifera", "details": "acute, mortality"}, "Daphnia magna": {"test_system": "Daphnia magna", "details": "chronic/long-term; duration: 21 days; mortality"}, "Tagia sp.": {"test_system": "Tagia sp.", "details": "acute; duration: 14 days; mortality"}, "Canidae": {"test_system": "Canidae", "details": "chronic; duration: 1 years; oral; Dog Other; organ weight"}, "Anas platyrhynchos": {"test_system": "Anas platyrhynchos", "details": "acute; oral; unspecified; mortality"}, "Phasianus sp.": {"test_system": "Phasianus sp.", "details": "acute; oral; unspecified; mortality"}}}
{"smiles": "CC(Cc1ccc(C(C)(C)C)cc1)CN1CCCCC1", "note": "(stereo unspecified) [Fenpropidin]", "values": [{"measurement": "NOEC", "setting": "Bibionidae", "value": 1, "unit": "mg/L"}, {"measurement": "LC50", "setting": "Lepomis macrochirus", "value": 1.9, "unit": "mg/L"}, {"measurement": "NOEC", "setting": "Folsomia candida", "value": 46.5, "unit": "mg/kg"}, {"measurement": "NOEC", "setting": "Oncorhynchus mykiss", "value": 0.32, "unit": "mg/L"}, {"measurement": "LD50", "setting": "Apis mellifera; dermal", "value": 46, "unit": "µg/piece"}, {"measurement": "LD50", "setting": "Apis mellifera; oral, unspecified", "value": "> 10", "unit": "µg/piece"}, {"measurement": "NOEC", "setting": "Daphnia magna", "value": 0.32, "unit": "mg/L"}, {"measurement": "LC50", "setting": "Tagia sp.", "value": "> 500", "unit": "mg/kg"}, {"measurement": "LD50", "setting": "Colinus virginianus; acute, oral, diet, mortality", "value": "> 1420", "unit": "mg/kg-day"}, {"measurement": "NOAEL", "setting": "Colinus virginianus; reproduction developmental", "value": 14.6, "unit": "mg/kg-day"}, {"measurement": "NOAEL", "setting": "Canidae", "value": 2, "unit": "mg/kg-day"}, {"measurement": "LD50", "setting": "Anas platyrhynchos", "value": 1900, "unit": "mg/kg-day"}, {"measurement": "LD50", "setting": "Rattus norvegicus; acute, mortality", "value": 1450, "unit": "mg/kg-day"}, {"measurement": "NOAEL", "setting": "Rattus norvegicus; chronic, duration: 2 years, body weight", "value": 2.27, "unit": "mg/kg-day"}, {"measurement": "NOAEL", "setting": "Rattus norvegicus; reproduction developmental", "value": 60.2, "unit": "mg/kg-day"}, {"measurement": "LD50", "setting": "Phasianus sp.", "value": 369, "unit": "mg/kg-day"}]}
